Laboratory results as given in publication PMC5941726, “Evaluating Hepatobiliary Transport with ^18F-Labeled Bile Acids: The Effect of Radiolabel Position and Bile Acid Structure on Radiosynthesis and In Vitro and In Vivo Performance” (Contrast Media & Molecular Imaging, 2018).
Values joined by “and” are separate entries in the source; they are usually repeats but may differ in a detail not shown here. Equal values may be shown once. Read-outs that look alike come from different tables or passages of the source.

Experiments:
[1] = target: T1, NTCP (Homo sapiens, UniProt Q14973); test: Inhibition of [^3H]taurocholate uptake in CHO cells expressing NTCP (competition assay); type: cell-based; settings: for Ki: 1 μM [^3H]TC, 15 min 37°C, Cheng-Prusoff from IC50 and Km, mean ± SD n = 3
T1 construct: host or cells: Chinese Hamster Ovary (CHO) cells
T1 sequence (Q14973 1-349): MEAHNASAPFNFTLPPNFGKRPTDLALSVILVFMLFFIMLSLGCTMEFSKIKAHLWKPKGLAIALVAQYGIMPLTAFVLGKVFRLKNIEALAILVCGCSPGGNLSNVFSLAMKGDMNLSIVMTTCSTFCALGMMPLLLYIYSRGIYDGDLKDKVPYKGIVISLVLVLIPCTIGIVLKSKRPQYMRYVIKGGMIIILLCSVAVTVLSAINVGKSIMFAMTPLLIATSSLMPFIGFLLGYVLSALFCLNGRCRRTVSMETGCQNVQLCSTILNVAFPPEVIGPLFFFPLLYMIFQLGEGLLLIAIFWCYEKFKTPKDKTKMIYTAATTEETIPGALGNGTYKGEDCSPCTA
Excerpt: Maintenance of these cell cultures was described earlier.

[2] = target: T2, OATP1B1 (Homo sapiens, UniProt Q9Y6L6)
T2 sequence (Q9Y6L6 1-691): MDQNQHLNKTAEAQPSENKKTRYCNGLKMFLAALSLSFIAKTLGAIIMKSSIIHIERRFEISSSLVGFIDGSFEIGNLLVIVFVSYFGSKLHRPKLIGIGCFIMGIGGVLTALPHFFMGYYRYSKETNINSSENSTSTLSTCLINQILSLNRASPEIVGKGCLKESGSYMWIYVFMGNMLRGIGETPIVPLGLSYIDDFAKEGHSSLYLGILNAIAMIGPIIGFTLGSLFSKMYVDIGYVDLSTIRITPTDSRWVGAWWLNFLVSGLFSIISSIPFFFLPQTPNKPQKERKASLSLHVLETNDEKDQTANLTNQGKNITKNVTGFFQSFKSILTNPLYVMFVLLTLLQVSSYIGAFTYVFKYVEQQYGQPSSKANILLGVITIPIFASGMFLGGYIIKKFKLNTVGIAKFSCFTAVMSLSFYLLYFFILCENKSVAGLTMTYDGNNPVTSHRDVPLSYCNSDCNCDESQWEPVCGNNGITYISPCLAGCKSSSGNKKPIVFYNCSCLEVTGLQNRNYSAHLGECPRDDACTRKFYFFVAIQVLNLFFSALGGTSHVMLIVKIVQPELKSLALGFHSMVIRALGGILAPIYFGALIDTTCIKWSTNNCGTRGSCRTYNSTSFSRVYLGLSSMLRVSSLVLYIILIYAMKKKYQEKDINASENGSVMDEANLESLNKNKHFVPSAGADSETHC
Description: (§2) Chinese Hamster Ovary (CHO) and Human Embryonic Kidney (HEK) cells expressing NTCP and OATP1B1, respectively (Solvo Biotechnologies), were used.
(§3) Cells were seeded in 24-well plates at 400,000 cells/well. […] All dosing solutions were formulated in the washing buffer and dosing was executed in triplicate. The incubation was stopped by placing the plates on ice and adding 1 mL ice-cold 1% BSA HBSS-solution. The supernatant was aspirated and the cells were washed twice with 2 mL ice-cold HBSS-solution. NaOH (250 μl, 0.1 M) was added to lyse the cells and the plates were shaken (15 minutes, 37°C). Aliquots of this lysate were subjected to liquid scintillation counting (TriCarb 2900 TR; Perkin Elmer) and protein determination with a BCA-assay (ThermoFisher Scientific).

[3] = target: BSEP (Homo sapiens, UniProt O95342); test: Inhibition of [^3H]TC uptake in BSEP membrane vesicles (efflux assay)
Description: All dosing was performed in triplicate. The plates were suspended in a 37°C water bath 1 minute before the incubation. Incubation was started by adding 10 μL of the ATP solution or buffer solution (negative control). Each well contained a final volume of 30 μL and the plates were incubated for 10 minutes at 37°C.
The contents of each well were pipetted in a glass fiber filter plate (Multiscreen HTS plates; Merck Millipore) and washed 3 times with 200 μL ice-cold buffer solution. Finally, 100 μL 0.1 M NaOH was added: lysis of the vesicles took place for 10 minutes at room temperature. An aliquot was used for liquid scintillation counting.

[4] = Stability of the tracer in formulation for use; type: physicochemical
Description: (§1) The logD-value, stability (in formulation for use and mouse serum), and identity of the tracer were assessed as described earlier. Radiochemical purity and percentage ^18F-labeling of precursor were determined by radio-TLC (silica gel TLC; with 10% MeOH in CH2Cl2 and 4 : 1 AcN : H2O, resp.).

[5] = Stability of the tracer in mouse serum; type: in vitro ADME
Description: as §1

[6] = LogD determination of the tracers; type: physicochemical
Description: as §1

[7] = system: wild-type FVB-mice; test: Dynamic PET/CT imaging of hepatobiliary transport in wild-type FVB-mice; type: in vivo, mouse; settings: for Time-to-peak liver / AUC GBI (gallbladder and intestines) / AUC liver (time-activity curve) / Max% ID GBI (gallbladder and intestines) / Max% ID liver: 9 MBq i.v., 1 hour PET-scan; for AUC GBI (gallbladder and intestines) / AUC liver (time-activity curve) / Max% ID GBI (gallbladder and intestines) / Max% ID liver: normalized for 20 g mouse
Description: The in vivo transport characteristics of the ^18F labeled bile acids were evaluated in wild-type FVB-mice (female, 5 w). The tracer described earlier, 3β-[^18F]FCA, was also included as a reference standard. Imaging was performed with a PET/CT (FLEX Triumph II small animal PET/CT-scanner; axial field of view: 7.5 cm; 1.3 mm spatial resolution; TriFoil Imaging). For each tracer, three animals were used. The animals were housed and handled in accordance with the European Ethics Committee guidelines and the experiments were approved by the Animal Experimental Ethical Committee of Ghent University (ECD 15/69).
Food and water were provided ad libitum, but the animals were fasted overnight before a PET/CT-scan. They were anesthetized with 1.5 v : v% isoflurane in O2 and placed on a heated bed. To allow injection of the tracer, a polyethylene intravenous line was inserted in the lateral tail vein and fixed. After the animals were transferred to the scanner animal bed, a 1 hour PET-scan was started and 9 MBq tracer was injected directly after starting the scan. Following this PET-scan, 9 MBq [^18F]FDG was injected and twenty minutes later, a second PET-scan with a 20-minute acquisition time was started.
All PET-scans were obtained in list-mode and were iteratively reconstructed (50 iterations). The 1-hour scan was reconstructed in the following frames: 8 × 15 s; 16 × 30 s; 10 × 60 s; 20 × 120 s. For presentation purposes, Maximum Intensity Projection PET/CT images were generated in Amide software. The data were analyzed using Pmod software v3.405 (PMOD Technologies): Regions Of Interest (ROIs) were drawn manually over the liver, gallbladder, and intestines. On the static [^18F]FDG scan, the left ventricle was delineated and this ROI was pasted on the dynamic scan to obtain an image-derived arterial blood concentration. The uptake of radioactivity in liver, gallbladder, and intestines was expressed as a percentage of the injected dose (% ID) and normalized for the weight of a 20 g mouse. The % ID in these organs was monitored in function of time to obtain time-activity curves (TACs). Biliary clearance of the tracers was determined with equation 2 from Ghibellini et al. [14](2) Biliary clearance=cumulative amount of tracer in gallbladder&intestines/AUC blood concentration0→60 min.
The Area Under the Curve (AUC), % ID, and time-to-peak values of the TACs were determined in GraphPad Prism v3.00 Software. The obtained parameters of the different ^18F labeled bile acids were compared to 3β-[^18F]FCA-values in SPSS Statistics 23 Software. Differences between two groups were analyzed with the nonparametric Mann–Whitney U test. A p value ≤ 0.05 was considered significant.

[8] = target: T2, OATP1B1; test: cell-based
Description: as §2, §3

[9] = target: T2, OATP1B1; test: Inhibition of [^3H]estradiol-17β-glucuronide uptake in HEK cells expressing OATP1B1 (competition assay)
Description: as §2, §3

[10] = wild-type mice, i.v., after 1 hour
[11] = wild-type mice, cumulative amount in gallbladder & intestines / AUC blood concentration 0-60 min, n = 3
[12] = female, FVB, mouse, in vivo, iv, 9 MBq
[13] = female, FVB, mouse, in vivo, iv, 1 h

Chain of BSEP (O95342 whole entry, species assumed): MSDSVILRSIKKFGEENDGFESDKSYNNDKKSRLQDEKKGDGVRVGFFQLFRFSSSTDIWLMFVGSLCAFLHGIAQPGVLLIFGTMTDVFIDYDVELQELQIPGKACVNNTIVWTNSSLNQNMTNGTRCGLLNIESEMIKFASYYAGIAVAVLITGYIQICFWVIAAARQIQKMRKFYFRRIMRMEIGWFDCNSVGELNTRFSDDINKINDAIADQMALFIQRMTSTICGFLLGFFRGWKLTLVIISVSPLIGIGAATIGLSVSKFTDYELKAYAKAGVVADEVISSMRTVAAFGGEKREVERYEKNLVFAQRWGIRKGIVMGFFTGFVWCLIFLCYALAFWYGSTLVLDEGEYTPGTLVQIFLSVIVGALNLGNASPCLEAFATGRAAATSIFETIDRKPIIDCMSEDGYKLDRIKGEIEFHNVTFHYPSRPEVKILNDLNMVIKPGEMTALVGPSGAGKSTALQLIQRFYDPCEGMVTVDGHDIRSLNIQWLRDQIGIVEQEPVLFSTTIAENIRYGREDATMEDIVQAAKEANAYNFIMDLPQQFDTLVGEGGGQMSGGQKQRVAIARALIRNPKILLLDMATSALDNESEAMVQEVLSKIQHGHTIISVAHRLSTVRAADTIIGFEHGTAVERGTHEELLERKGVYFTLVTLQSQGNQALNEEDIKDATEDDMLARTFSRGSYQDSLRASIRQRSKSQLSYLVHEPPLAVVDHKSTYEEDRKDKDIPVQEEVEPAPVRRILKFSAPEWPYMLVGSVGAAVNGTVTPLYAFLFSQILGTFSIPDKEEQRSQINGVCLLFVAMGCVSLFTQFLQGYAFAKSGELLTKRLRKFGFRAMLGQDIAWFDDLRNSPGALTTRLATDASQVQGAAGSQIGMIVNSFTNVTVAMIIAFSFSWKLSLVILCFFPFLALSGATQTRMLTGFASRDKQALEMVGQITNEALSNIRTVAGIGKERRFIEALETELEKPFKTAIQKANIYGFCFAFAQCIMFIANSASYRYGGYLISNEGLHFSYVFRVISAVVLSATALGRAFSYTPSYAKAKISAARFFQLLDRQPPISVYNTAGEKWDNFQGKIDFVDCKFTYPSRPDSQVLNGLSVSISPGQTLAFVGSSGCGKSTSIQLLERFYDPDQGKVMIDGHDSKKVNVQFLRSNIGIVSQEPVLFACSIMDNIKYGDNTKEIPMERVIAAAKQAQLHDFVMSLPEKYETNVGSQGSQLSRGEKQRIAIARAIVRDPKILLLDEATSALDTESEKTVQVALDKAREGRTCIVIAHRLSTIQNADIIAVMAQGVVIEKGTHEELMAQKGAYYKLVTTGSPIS

SMILES: C[C@H](CCC(=O)NCCS(=O)(=O)O)[C@H]1CC[C@H]2[C@@H]3[C@H](O)C[C@@H]4C[C@H](O)CC[C@]4(C)[C@H]3C[C@H](O)[C@]12C [[^3H]TC, [^3H]taurocholate, reference compound]
- Vmax of substrate uptake ([1]; 0–150 μM, 10 min 37°C): 200.4 ± 9.77 pmol/min·mg protein
- Km ([1]; 0–150 μM, 10 min 37°C, read-out: Km (Michaelis-Menten) of substrate uptake): 15.3 ± 2.46 µM

SMILES: C[C@H](CCC(=O)NCC(=O)O)[C@H]1CC[C@H]2[C@@H]3[C@H](O)C[C@@H]4C[C@@H](F)CC[C@]4(C)[C@H]3C[C@H](O)[C@]12C [3βFGCA, 3β F glycocholic acid]
- Ki [2]: 4.24 ± 0.16 µM
- Ki [3]: 87.4 ± 14.6 µM
- Ki [1]: 1.09 ± 0.34 µM

SMILES: C[C@H](CCC(=O)O)[C@H]1CC[C@H]2[C@@H]3[C@H](O)C[C@@H]4C[C@H]([18F])CC[C@]4(C)[C@H]3C[C@H](O)[C@]12C [3α-[^18F]FCA, 3α-[^18F]fluorocholic acid]
- Stability in its formulation ([4]; formulation for use (phosphate buffered saline)): stable
- Stability in mouse serum ([5]; mouse serum): stable
- logD ([6]; n = 3, mean ± SD, read-out: LogD): 0.92 ± 0.17
- Time-to-peak liver ([7]; wild-type mice, n = 3): 3.33 ± 0.62 min and 3.33 ± 0.62^∗ min
- AUC GBI (gallbladder and intestines) ([7]; wild-type mice, n = 3): 4184 ± 109^∗ % ID·min
- AUC liver (time-activity curve) ([7]; wild-type mice, n = 3): 1065 ± 171^∗ % ID·min
- Max% ID GBI (gallbladder and intestines) ([7]; wild-type mice, n = 3): 88.70 ± 2.38%
- Max% ID liver ([7]; wild-type mice, n = 3): 58.58 ± 3.19%
- Organ uptake after intravenous injection ([7]; wild-type mice, PET): exclusive hepatic uptake
- Injected activity found in gallbladder and intestines after 1 hour [7, 10]: approx. 80%
- Biliary clearance [7, 11]: 0.49 ± 0.10 mL/min

SMILES: C[C@H](CCC(=O)O)[C@H]1CC[C@H]2[C@@H]3[C@H](O)C[C@@H]4C[C@@H](F)CC[C@]4(C)[C@H]3CC[C@]12C [3βFCDCA]
- Ki [2]: 0.64 ± 0.07 µM
- Ki [3]: 48.2 ± 3.94 µM
- Ki [1]: 0.91 ± 0.02 µM

SMILES: C[C@H](CCC(=O)O)[C@H]1CC[C@H]2[C@@H]3[C@H](O)C[C@@H]4C[C@H](O)CC[C@]4(C)[C@H]3C[C@H](O)[C@]12C [CA, Cholic acid]
- Ki [8]: 42.7 ± 0.16 µM

SMILES: C[C@H](CCC(=O)O)[C@H]1CC[C@H]2[C@@H]3[C@H](O)C[C@@H]4C[C@@H]([18F])CC[C@]4(C)[C@H]3CC[C@]12C [3β-[^18F]FCDCA, 3β-[^18F]fluorochenodeoxycholic acid]
- Stability in its formulation [4]: stable
- Stability in mouse serum [5]: stable
- logD [6]: 1.42 ± 0.16
- Biliary clearance [7, 12]: 0.18 ± 0.04^∗ mL/min
- Injected activity found in gallbladder and intestines after 1 hour [7, 13]: 60%
- Organ uptake after intravenous injection ([7]; mouse, in vivo, iv): exclusive hepatic uptake

SMILES: C[C@H](CCC(=O)O)[C@H]1CC[C@H]2[C@@H]3[C@H](O)C[C@@H]4C[C@H](F)CC[C@]4(C)[C@H]3C[C@H](O)[C@]12C [3αFCA, 3α-fluorocholic acid]
- Ki [2]: 5.22 ± 0.56 µM
- Ki [3]: 199 ± 39.5 µM
- Ki [1]: 2.53 ± 0.76 µM

SMILES: C[C@H](CCC(=O)NCC(=O)O)[C@H]1CC[C@H]2[C@@H]3[C@H](O)C[C@@H]4C[C@@H]([18F])CC[C@]4(C)[C@H]3C[C@H](O)[C@]12C [3β-[^18F]FGCA, 3β-[^18F]fluoroglycocholic acid]
- Stability in its formulation [4]: stable
- Stability in mouse serum [5]: stable
- logD [6]: 0.011 ± 0.037
- Biliary clearance [7, 12]: 0.47 ± 0.07 mL/min
- Injected activity found in gallbladder and intestines after 1 hour [7, 13]: approx. 80%
- Organ uptake after intravenous injection ([7]; mouse, in vivo, iv): exclusive hepatic uptake

SMILES: C[C@H](CCC(=O)O)[C@H]1CC[C@H]2[C@@H]3[C@H](O)C[C@@H]4C[C@@H]([18F])CC[C@]4(C)[C@H]3C[C@H](O)[C@]12C [3β-[^18F]FCA, 3β-[^18F]fluorocholic acid, reference compound]
- Time-to-peak liver ([7]; wild-type mice, n = 3): 5.33 ± 0.24 min
- AUC GBI (gallbladder and intestines) ([7]; wild-type mice, n = 3): 3499 ± 340 % ID·min
- AUC liver (time-activity curve) ([7]; wild-type mice, n = 3): 1785 ± 194 % ID·min
- Max% ID GBI (gallbladder and intestines) ([7]; wild-type mice, n = 3): 83.44 ± 9.27%
- Max% ID liver ([7]; wild-type mice, n = 3): 63.80 ± 2.61%
- Organ uptake after intravenous injection ([7]; wild-type mice, PET): exclusive hepatic uptake
- Injected activity found in gallbladder and intestines after 1 hour [7, 10]: approx. 80%
- Biliary clearance [7, 11]: 0.46 ± 0.08 mL/min

SMILES: C[C@H](CCC(=O)O)[C@H]1CC[C@H]2[C@@H]3[C@H](O)C[C@@H]4C[C@H](O)CC[C@]4(C)[C@H]3C[C@@H](F)[C@]12C [12βFCA]
- Ki [2]: 4.56 ± 0.25 µM
- Ki ([3]; read-out: Ki for BSEP, BSEP membrane vesicles, 0.65 μM [^3H]TC, 10 min 37°C, Cheng-Prusoff from IC50 and Km, mean ± SD n = 3): 367 ± 38.1 µM
- Ki [1]: 30.1 ± 9.4 µM

SMILES: C[C@]12CC[C@@H]3c4ccc(O)cc4CC[C@H]3[C@@H]1CC[C@@H]2O[C@@H]1O[C@H](C(=O)O)[C@@H](O)[C@H](O)[C@H]1O [[^3H]EbG, [^3H]estradiol-17β-glucuronide]
- Vmax of substrate uptake ([9]; 0–150 μM, 10 min 37°C): 146.4 ± 5.52 pmol/min·mg protein
- Km ([9]; read-out: Km (Michaelis-Menten) of substrate uptake, 0–150 μM, 10 min 37°C): 11.7 ± 1.59 µM
